Where “and” joins values, the source holds several entries; their conditions need not be identical. Equal values may be shown once. Entries after “also recorded” stand apart in the source; their conditions may differ. Read-outs that look alike come from different tables or passages of the source.
Tests used:
[1] = tested on: N9 microglial cells; assay: Nitrites measurement (Griess reaction) in medium of LPS-treated N9 microglial cells; assay type: cell-based, mouse; conditions: 100 ng/mL LPS, 6 h pretreatment + 24 h
Text: (§1) Microglia, essential regulators of neuroinflammatory processes, can be polarized to two distinct activation states: M1 and M2. M1 microglia have proinflammatory, neurotoxic properties and are modeled in vitro through lipopolysaccharides (LPS) activation. Alternatively, M2 microglia are involved in anti-inflammatory processes, contributing to trophic support of neurons and neuroprotective functions. A marked microglial activation with high expression levels of proinflammatory genes is found in MS lesions.[23] Conversely, the neuroprotective effects of the MS drug glatiramer are mediated by activated M2 microglia.[24] To this end, we evaluated whether 1 and 2 modulate microglial shift from an M1 neurotoxic phenotype to an M2 neuroprotective one. […] After pretreatment for 6 h and administration for a further 24 h, the microglial phenotype was evaluated through Western blot analysis of the M1-iNOS (inducible Nitric Oxide Synthase) and M2-TREM2 (Triggering Receptor Expressed on Myeloid cells 2) markers (Figure 6). We also assessed nitrite production, due to iNOS induction, in the incubation media. […]
medium/well and treated with increasing concentrations of the compounds (0.5, 1, 5 and 10 μM), in serum-free DMEM for 24 hours. After 24 hours, the viability was evaluated through the MTT assay. […]

[2] = tested on: human liver carcinoma immortalized cell line (HepG2); conditions: for cell survival/death in HepG2 cells, % mean ± SE of controls (MTT): 24 h treatment; for hepatotoxicity in HepG2 (in words): even at the higher tested concentrations
[3] = tested on: primary rat cerebellar granule neurons (CGNs); conditions: for cell survival/death in CGNs, % mean ± SE of controls (MTT): 24 h treatment; for neurotoxicity profile in CGNs (in words): 5-50 μM, 24 h
[4] = tested on: TREM2; assay: Immunomodulation assay: TREM2 (M2 marker) expression in LPS-treated N9 microglial cells (Western blot); assay type: cell-based, mouse; conditions: 100 ng/mL LPS, 6 h pretreatment + 24 h
Text: as §1
(§2) Nitrite accumulation in cell media was assayed by the Griess reaction. […] Absorbance was read at 540 nm using a plate reader after 15 min of incubation at room […]
(§3) After 24 hours, the viability was evaluated through the MTT assay. […]

[5] = PAMPA-BBB permeation assay; conditions: for Papp at 100 µM: PAMPA, pH 7.4; for BBB penetration estimation, CNS (+/−): PAMPA-BBB prediction
[6] = tested on: iNOS; assay: Immunomodulation assay: iNOS (M1 marker) expression in LPS-treated N9 microglial cells (Western blot); assay type: cell-based, mouse; conditions: 100 ng/mL LPS, 6 h pretreatment + 24 h, even at 0.5 μM
Text: as §1, §2, §3

| SMILES | levels of nitrites in incubation medium [1] | cell survival/death in HepG2 cells, % mean ± SE of controls (MTT) ([2]; 5 μM) | cell survival/death in HepG2 cells, % mean ± SE of controls (MTT) ([2]; 10 μM) | cell survival/death in HepG2 cells, % mean ± SE of controls (MTT) ([2]; 25 μM) | cell survival/death in HepG2 cells, % mean ± SE of controls (MTT) ([2]; 50 μM) | hepatotoxicity in HepG2 (in words) [2] | cell survival/death in CGNs, % mean ± SE of controls (MTT) ([3]; 5 μM) | cell survival/death in CGNs, % mean ± SE of controls (MTT) ([3]; 10 μM) | cell survival/death in CGNs, % mean ± SE of controls (MTT) ([3]; 25 μM) | cell survival/death in CGNs, % mean ± SE of controls (MTT) ([3]; 50 μM) | neurotoxicity profile in CGNs (in words) [3] | expression of TREM2 (M2 marker) [4] | Papp at 100 µM [5] | BBB penetration estimation, CNS (+/−) [5] | microglia production of M1 proinflammatory marker iNOS [6] |
| --- | --- | --- | --- | --- | --- | --- | --- | --- | --- | --- | --- | --- | --- | --- | --- |
| CC/C=C\C/C=C\C/C=C\CCCCCCCC(=O)NCCNC(=O)C(CCC)CCC [compound 1] | reduced their concentration more effectively than VPA | 87 ± 13% | 93 ± 5% | 81 ± 10% and > 80% | 64 ± 8% | low hepatotoxicity | 98 ± 18% | 107 ± 3% | 89 ± 14% | 99 ± 15% | low neurotoxicity profile | unchanged expression | 28 ± 5.3 ×10⁻⁶ cm/s | high BBB permeability; also recorded: CNS + | significantly decrease |
| CC/C=C\C/C=C\C/C=C\CCCCCCCC(=O)NCCOC(=O)C(CCC)CCC [compound 2] | reduced their concentration more effectively than VPA | 102 ± 10% | 104 ± 4% | 84 ± 6% and > 80% | 80 ± 9% | low hepatotoxicity | 97 ± 16% | 110 ± 3% | 96 ± 15% | 85 ± 14% | low neurotoxicity profile | unchanged expression | 14.6 ± 1.61 ×10⁻⁶ cm/s | BBB-permeable; also recorded: CNS + | significantly decrease |

— publication PMC7734798 (ACS Medicinal Chemistry Letters, 2020)
